# Measurements published in patent publication US20160346255A1, “METHODS, AGENTS AND COMPOSITIONS FOR TREATMENT OF INFLAMMATORY CONDITIONS” (Betanien Hospital, priority 2014, published 2016).
# Non-standard residues stand in square brackets, D forms with d. Residues, ends and D or L forms follow the SMILES beside them. *: point of attachment. dPhe(4-NHCONH2) = NC(=O)Nc1ccc(C[C@@H](N)C(=O)O)cc1; Dihydroorotyl(S) = O=C1C[C@@H](C(=O)*)NC(=O)N1; dPhe(4-Cl) = N[C@H](Cc1ccc(Cl)cc1)C(=O)O; Phe(4-NH2) = Nc1ccc(C[C@H](N)C(=O)O)cc1; d2Nal = N[C@H](Cc1ccc2ccccc2c1)C(=O)O; Lys(iPr) = CC(C)NCCCC[C@H](N)C(=O)O; d3Pal = N[C@H](Cc1cccnc1)C(=O)O
# Tested on: patients 1 and 2 (rheumatoid arthritis)
# Experiment: Hip bone mineral density in patients taking a GnRH antagonist
# Format: in vivo, human
# Text: However, our data indicates the opposite.
compound,measurement,setting,value
CC(=O)N[C@H](Cc1ccc2ccccc2c1)C(=O)N[C@H](Cc1ccc(Cl)cc1)C(=O)N[C@H](Cc1cccnc1)C(=O)N[C@@H](CO)C(=O)N[C@@H](Cc1ccc(NC(=O)[C@@H]2CC(=O)NC(=O)N2)cc1)C(=O)N[C@H](Cc1ccc(NC(N)=O)cc1)C(=O)N[C@@H](CC(C)C)C(=O)N[C@@H](CCCCNC(C)C)C(=O)N1CCC[C@H]1C(=O)N[C@H](C)C(N)=O [degarelix] (Ac-[d2Nal][dPhe(4-Cl)][d3Pal]S[Phe(4-NH2)](Dihydroorotyl(S))[dPhe(4-NHCONH2)]L[Lys(iPr)]P[dA]-NH2),Bone mineral density in hips,"Patient 1, first time in 3.5 years, no osteoporosis therapy (FIG. 9)",improvement
same,Bone mineral density in hips,"Patient 2, first time in 4.5 years (FIG. 10)",improvement
